Each structure is given as a SMILES string. pIC50: −log10 of the molar value. Where only a bound is given, the exact number is not on record here.

By pIC50 is commonly meant −log10 of the IC50, conventionally taken in molar units. A word on the melting point: it is the temperature of the solid-liquid transition.

One series addresses T1, GST-JAK2(808-1132) (Homo sapiens, UniProt O60674).
T1 construct: GST-JAK2(808-1132) is purchased from Invitrogen; purchased Invitrogen (Carlsbad, USA) #4288
As to the kind of experiment: EPK JAK/TYK-kinase family profiling assay (Caliper mobility shift), JAK2. In kind it is biochemical. The settings on record: Caliper mobility shift assay of Example 187, 20 μM ATP, read-out: IC50 with Test in present Example. The method in brief: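 Caliper mobility-shift assay with the GST-tagged kinase domain and a fluorescently labeled peptide substrate plus ATP, run 60 min at 30° C and then stopped with EDTA buffer. Turnover was taken as the substrate/product ratio. Compounds were tested at eight final concentrations from 10 to 0.003 μM.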

In another series the target is T2, GST-JAK2 (Homo sapiens, UniProt O60674).
T2 construct: the amino acid domain ASP751-VAL1129 of the JAK2 protein
T2 sequence (O60674 751-1129): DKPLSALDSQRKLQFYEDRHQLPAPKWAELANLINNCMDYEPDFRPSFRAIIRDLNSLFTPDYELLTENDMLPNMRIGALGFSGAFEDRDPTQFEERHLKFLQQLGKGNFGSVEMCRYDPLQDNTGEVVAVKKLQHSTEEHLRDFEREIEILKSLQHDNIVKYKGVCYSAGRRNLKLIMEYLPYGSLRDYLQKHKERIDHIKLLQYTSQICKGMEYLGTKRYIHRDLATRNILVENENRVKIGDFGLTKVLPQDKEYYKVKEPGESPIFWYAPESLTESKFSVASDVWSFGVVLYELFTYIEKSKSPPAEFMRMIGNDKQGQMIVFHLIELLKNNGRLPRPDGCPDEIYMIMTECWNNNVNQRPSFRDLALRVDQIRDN
As to the kind of experiment: JAK2 kinase assay of the general description (alternative method, flash plate). In kind it is biochemical. The settings on record: 1.0 μM ATP, read-out: IC50 with test in general description (named “alternative method to that given in the examples”) (“flash plate”).

T1 sequence (O60674 808-1132): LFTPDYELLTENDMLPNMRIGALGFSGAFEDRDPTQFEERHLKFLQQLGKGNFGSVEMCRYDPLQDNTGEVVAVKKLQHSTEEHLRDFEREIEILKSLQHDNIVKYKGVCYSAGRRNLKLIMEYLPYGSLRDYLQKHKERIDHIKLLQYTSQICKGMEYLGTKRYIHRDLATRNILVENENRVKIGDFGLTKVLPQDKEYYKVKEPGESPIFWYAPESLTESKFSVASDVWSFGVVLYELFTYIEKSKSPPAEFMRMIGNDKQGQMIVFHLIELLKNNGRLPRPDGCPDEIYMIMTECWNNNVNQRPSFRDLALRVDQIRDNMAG

Turning to `COc1cc(Nc2nc3cccc(-c4ccc(C(N)=O)cc4)c3o2)cc(OC)c1OC` [Example 16, 4-[2-(3,4,5-Trimethoxy-phenylamino)-benzooxazol-7-yl]-benzamide], the melting point is over 280 °C. The pIC50 at GST-JAK2(808-1132) was 7.46. The pIC50 at GST-JAK2 is 7.03.
For `COc1cc(Nc2nc3cccc(-c4ccc(S(C)(=O)=O)cc4)c3o2)cc(OC)c1OC` [Example 17, [7-(4-Methanesulfonyl-phenyl)-benzooxazol-2-yl]-(3,4,5-trimethoxy-phenyl)-amine] the same measures were 205 to 207 °C, 7.92 and 7.40.
In turn, `COc1cc(Nc2nc3cccc(-c4ccc(S(N)(=O)=O)cc4)c3o2)cc(OC)c1OC` [Example 18, 4-[2-(3,4,5-Trimethoxy-phenylamino)-benzooxazol-7-yl]-benzenesulfonamide] showed a melting point of 247 to 252 °C. The pIC50 on GST-JAK2(808-1132) was 8.00. Also, the pIC50 at GST-JAK2 is 8.00.
Compound `CNS(=O)(=O)c1ccc(-c2cccc3nc(Nc4cc(OC)c(OC)c(OC)c4)oc23)cc1` [Example 21, N-Methyl-4-[2-(3,4,5-trimethoxy-phenylamino)-benzooxazol-7-yl]-benzenesulfonamide] yielded a melting point of 260 to 262 °C. The pIC50 on GST-JAK2(808-1132) was 7.72. Also, the pIC50 at GST-JAK2 is 7.80.
The matching figures for `CNC(=O)c1ccc(-c2cccc3nc(Nc4cc(OC)c(OC)c(OC)c4)oc23)cc1` [Example 24, N-Methyl-4-[2-(3,4,5-trimethoxy-phenylamino)-benzooxazol-7-yl]-benzamide]: 258 to 259 °C, 7.72 and 7.10.
Consider `COc1cc(Nc2nc3ccnc(-c4cccc(N)c4)c3o2)cc(OC)c1OC` [Example 37, [4-(3-Amino-phenyl)-oxazolo[5,4-c]pyridin-2-yl]-(3,4,5-trimethoxy-phenyl)-amine], for which the melting point is 120 to 126 °C. Besides, the pIC50 at GST-JAK2 is 6.62.
Take `COc1cc(Nc2nc3ccnc(-c4ccc(S(N)(=O)=O)cc4)c3o2)cc(OC)c1OC` [Example 38, 4-[2-(3,4,5-Trimethoxy-phenylamino)-oxazolo[5,4-c]pyridin-4-yl]-benzenesulfonamide]: the melting point was over 280 °C. Moreover, at GST-JAK2(808-1132), the pIC50 was 6.51. Also, at GST-JAK2, the pIC50 is 6.35.
`COc1cccc(-c2cccc3nc(Nc4ccc(N5CCOCC5)cc4)oc23)c1` [Example 39, [7-(3-Methoxy-phenyl)-benzooxazol-2-yl]-(4-morpholin-4-yl-phenyl)-amine] gave a melting point of 180 to 182 °C. On GST-JAK2, the pIC50 is 5.92.
For `Nc1ccc(-c2cccc3nc(Nc4ccc(N5CCOCC5)cc4)oc23)cc1` [Example 40, [7-(4-Aminophenyl)-benzooxazol-2-yl]-(4-morpholin-4-yl-phenyl)-amine] the same measures were 241 to 243 °C and 5.96.
`Nc1cccc(-c2cccc3nc(Nc4ccc(N5CCOCC5)nc4)oc23)c1` [Example 42, [7-(3-Amino-phenyl)-benzooxazol-2-yl]-(6-morpholin-4-yl-pyridin-3-yl)-amine] displayed a melting point of 235 to 237 °C. In addition, the pIC50 at GST-JAK2 was 5.92.

Values taken from patent US8629168B2, “Benzoxazoles and oxazolopyridines being useful as janus kinases inhibitors” (priority 2006, dated 2014).
